According to patent publication US10058611B2, “Use of α-(8-quinolinyloxy) mono-substituted phthalocyanine zinc for treatment of psoriasis” (BEIJING GUIQIANJIN MEDICAL SCIENCE AND TECHNOLOGY CO., LTD., priority 2014, dated 2018):

Tests used:
[1] = tested on: propranolol-induced psoriasis-like lesions; assay: Propranolol-induced psoriasis-like lesions on guinea pig ears (PDT, histology); assay type: in vivo
From the text: Propranolol is a β-adrenergic receptor blocking agent, and it may be applied to guinea pig skin to block the β-adrenergic receptor in keratinocytes and thereby reducing the intracellular cAMP level, leading to histopathological changes similar to psoriasis such as hyperkeratosis, parakeratosis and acanthosis of animal epidermis, which are the same as human psoriatic lesions at the molecular level. Application of propranolol to ear skin of guinea pig to replicate a psoriasis-like skin model is often used for observing the therapeutic effect of a drug on psoriasis.
Preparation method for 5% propranolol liniment: dissolving 5 g powder of propranolol API in 50 mL of 50% ethanol, adding 5 g of polyoxyethylene pyrrolidone 30, 2.5 mL of azone, 2.5 mL of propylene glycol, and finally adding 50% ethanol to 100 mL. 5% propranolol was prepared fresh for use. Forty-two guinea pigs were randomly divided into a blank control group and a model-establishing group according to weights, 6 guinea pigs in the blank control group and 36 guinea pigs in the model-establishing group. 5% propranolol was applied uniformly on the back of both ears of guinea pigs in the model-establishing group at a dose of 0.1 mL/ear, once in the morning and once in the afternoon, and the administration lasted for continuous 4 weeks. After the model was established, the guinea pigs in the model-establishing group were randomly divided into 6 groups according to weights again, 6 guinea pigs in each group. The 6 groups were model control group, irradiation without administration group, administration without irradiation group, injection administration group and topical administration groups 1 and 2, respectively. The administration without irradiation group and the injection administration group were intravenously injected with α-(8-quinolinyloxy) mono-substituted phthalocyanine zinc solution at a dose of 0.45 mg/kg and the topical administration groups 1 and 2 were respectively applied with 5% and 1% α-(8-quinolinyloxy) mono-substituted phthalocyanine zinc liniments at a dose of 0.1 mL/ear. […] were not administrated. After protection from light for 24 hours, the irradiation without administration group, the injection administration group and the topical administration groups 1 and 2 were subjected to laser irradiation by using a semiconductor photodynamic therapeutic instrument with the following irradiation conditions: output power, 1,000 mW; spot diameter, 6 cm; irradiation time, 399 s; irradiation dose, 14 J/cm^2. After irradiation, animals were protected from light for 48 hours, and then recovered for 3 days. A photodynamic therapy (administration, irradiation, protection from light and recovery) was repeated once according to the abovementioned steps. […]

[2] = tested on: mouse vaginal epithelial cells; assay: Diethylstilbestrol-induced excessive proliferation of mouse vaginal epithelial cells (PDT, mitotic index); assay type: in vivo, ICR mice; conditions: for Mitotic Index: x ± s, n = 10
From the text: Estrogen (for example diethylstilbestrol) may induce the active proliferation of mouse vaginal epithelial cells, thereby accelerating the turnover of epithelial cells; and colchicine may make the cell cycle stagnated in the mitotic metaphase and then the inhibition effects of a test substance on mitosis and excessive cell proliferation may be observed. This model may simulate the characteristic of overly rapid proliferation of epithelial cells in psoriasis patients, is simple and easy to obtain, and is one of the most common animal models in the assessment of drug efficacy for psoriasis.
Sixty ICR mice were taken and randomly divided into 6 groups according to weights: blank control group, model control group, irradiation without administration group and PDT groups 1, 2 and 3. Except for the blank control group, all of other groups were intraperitoneally injected with diethylstilbestrol (0.2 mg/mouse), once-daily for 3 days. […] After protection from light for 6 hours, the PDT groups 1, 2 and 3 and the irradiation without administration group were subjected to laser irradiation by using a semiconductor photodynamic therapeutic instrument; the irradiation conditions were 100 mW×540 s, 300 mW×60 s, 100 mW×60 s and 300 mW×540 s, respectively; the spot diameter was 3 cm; and the abdomen of mice was irradiated. The blank control group and the model control group were not subjected to irradiation. After one week post-irradiation, mice of each group were intraperitoneally injected with colchicine at a dose of 2 mg/kg, making the cell mitosis stagnated in the mitotic metaphase. After 4 hours post-injection of colchicine, animals were sacrificed by anesthesia. Mouse vagina was taken, fixed in 10% formaldehyde solution, conventionally dehydrated, embedded in paraffin, sliced and stained with HE; 300 basal cells were counted under a microscope and the number of mitotic cells was calculated and the mitotic index was calculated (number of mitotic cells per 100 basal cells).

HaCaT cells = assay: Proliferation inhibition of HaCaT cells after 670 nm irradiation (MTT); assay type: cell-based, human
Method: HaCaT cell line, a cell line of normally mutated and immortalized human keratinocyte, is one of the most wildly used cell models for the currently study of psoriasis. As compared with primary cultured keratinocytes, HaCaT cells have similar biological properties, but its operation is simpler.
HaCaT cells were routinely cultured in RPMI-1640 medium containing 10% fetal bovine serum at 37° C. in a 5% CO2 incubator. The cells were harvested in logarithmic growth phase, digested with 0.25% trypsin (containing EDTA), adjusted to a cell density of 2×10^5 cells/mL and seeded in a 96-well plate, 100 μL per each well; after incubation for 24 hours, α-(8-quinolinyloxy) mono-substituted phthalocyanine zinc was added at concentrations of 0.001 μg/mL, 0.01 μg/mL, 0.1 μg/mL, 1 μg/mL and 10 μg/mL respectively and three complex wells were set for each concentration. […] The culture medium was discarded; 200 μL of MTT solution (0.5 mg/mL) was added to each well; the cells were incubated for additional 4 hours; then, 200 μL of dimethyl sulfoxide was added to each well and the absorbance value of each well was measured by a microplate reader at 545 nm (reference wavelength: 450 nm). 3 times of parallel measurements were conducted and the mean value was calculated. The inhibition rate of proliferation was calculated and IC50 was calculated by Bliss method.

“α-(8-quinolinyloxy) mono-substituted phthalocyanine zinc” was tested, and the “Psoriasis-like lesions of the guinea pig ear (result in words)” value (“Psoriasis-like lesions” below) ([1]; administration without irradiation group: 0.45 mg/kg i.v., no laser) was “improved to some extent but not obviously”, the “Psoriasis-like lesions” value ([1]; injection administration group: 0.45 mg/kg i.v., laser 1,000 mW, 399 s, 14 J/cm^2, two photodynamic therapies) was “improved significantly” and the “Psoriasis-like lesions” value ([1]; topical administration group 1: 5% liniment 0.1 mL/ear, laser 1,000 mW, 399 s, 14 J/cm^2, two photodynamic therapies) was “improved significantly”. For the same substance, the “Psoriasis-like lesions” value ([1]; topical administration group 2: 1% liniment 0.1 mL/ear, laser 1,000 mW, 399 s, 14 J/cm^2, two photodynamic therapies) was “improved significantly”, the “Mitotic Index” value ([2]; PDT group 1: dose 2 mg/kg i.p., irradiation 540 s, 100 mW) was 6.4 ± 2.2^##^ % and the “Mitotic Index” value ([2]; PDT group 2: dose 1 mg/kg i.p., irradiation 60 s, 300 mW) was 7.2 ± 2.6 %. For the same substance, the “Mitotic Index” value ([2]; PDT group 3: dose 0.5 mg/kg i.p., irradiation 60 s, 100 mW) was 10.3 ± 4.3 %, the “Mitotic index compared with the model control group (result in words)” value ([2]; PDT groups 1, 2 and 3) was “significantly reduced” and the “Proliferation of HaCaT cells (result in words)” value (HaCaT cells; 0.001-10 μg/mL, 670 nm irradiation) was “inhibit the proliferation of HaCaT cells in a concentration-dependent manner”. For the same substance, the “IC50, inhibition of proliferation of HaCaT cells” value (HaCaT cells; 4 h incubation, 670 nm irradiation 1500 mW, spot 8 cm, 180 s, MTT 48 h after irradiation, Bliss method) was 0.197 ± 0.022 µg/mL.
